Source: article PMC7253177, “Gain of channel function and modified gating properties in TRPM3 mutants causing intellectual disability and epilepsy” (eLife, 2020)
Changes are numbered by the printed parent chain.

Legend:
TRPM3 V990M mutant = target: T1, TRPM3 V990M mutant (Homo sapiens, UniProt Q9HCF6, V1015M); experiment: Whole-cell patch clamp, HEK293T cells expressing V990M hTRPM3; type: cell-based; conditions: La3+ 10 µM, PS 40 µM, ±150 mV
T1 construct: expressed in transfected cells; host or cells: HEK293T
T1 sequence (Q9HCF6 1-1325 isoform Q9HCF6-10 V990M): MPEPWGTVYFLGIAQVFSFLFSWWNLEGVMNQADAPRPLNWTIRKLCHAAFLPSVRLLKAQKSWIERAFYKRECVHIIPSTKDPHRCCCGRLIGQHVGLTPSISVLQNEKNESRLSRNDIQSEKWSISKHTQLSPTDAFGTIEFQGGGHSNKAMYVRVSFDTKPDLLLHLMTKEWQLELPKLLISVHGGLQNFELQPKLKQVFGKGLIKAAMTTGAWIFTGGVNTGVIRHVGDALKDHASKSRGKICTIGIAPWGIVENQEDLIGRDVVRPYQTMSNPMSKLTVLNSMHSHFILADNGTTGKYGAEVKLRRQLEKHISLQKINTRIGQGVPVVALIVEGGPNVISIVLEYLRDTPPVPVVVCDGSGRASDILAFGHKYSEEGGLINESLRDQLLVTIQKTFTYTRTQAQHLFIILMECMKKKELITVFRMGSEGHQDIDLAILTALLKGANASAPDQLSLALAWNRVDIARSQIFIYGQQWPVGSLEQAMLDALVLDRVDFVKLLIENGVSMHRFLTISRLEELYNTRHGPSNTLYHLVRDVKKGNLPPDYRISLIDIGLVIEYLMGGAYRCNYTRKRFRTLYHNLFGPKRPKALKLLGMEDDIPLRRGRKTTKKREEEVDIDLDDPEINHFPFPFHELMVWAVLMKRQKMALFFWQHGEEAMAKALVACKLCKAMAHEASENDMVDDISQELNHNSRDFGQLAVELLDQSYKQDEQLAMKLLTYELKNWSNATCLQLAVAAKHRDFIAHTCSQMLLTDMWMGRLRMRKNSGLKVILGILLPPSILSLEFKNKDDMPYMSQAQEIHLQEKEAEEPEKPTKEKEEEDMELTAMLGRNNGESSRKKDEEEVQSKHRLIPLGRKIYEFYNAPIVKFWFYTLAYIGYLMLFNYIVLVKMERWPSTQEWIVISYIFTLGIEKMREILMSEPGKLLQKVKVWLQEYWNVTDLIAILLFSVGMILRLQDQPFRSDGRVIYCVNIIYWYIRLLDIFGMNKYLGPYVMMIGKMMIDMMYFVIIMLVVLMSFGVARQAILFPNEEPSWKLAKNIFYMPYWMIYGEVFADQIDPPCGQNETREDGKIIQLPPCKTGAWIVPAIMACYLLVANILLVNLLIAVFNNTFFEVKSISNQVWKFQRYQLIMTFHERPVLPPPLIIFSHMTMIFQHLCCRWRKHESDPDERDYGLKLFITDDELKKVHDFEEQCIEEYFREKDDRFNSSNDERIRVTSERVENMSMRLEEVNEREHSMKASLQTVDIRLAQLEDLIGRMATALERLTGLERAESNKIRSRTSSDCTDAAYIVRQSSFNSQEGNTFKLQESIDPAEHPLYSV
Description: (§1) HEK293T cells ([Graham et al., 1977]) were cultured as described previously ([Vriens et al., 2007]) and used up in passage number 14. HEK293T cells were tested for the lack of mycoplasma and transiently transfected with 2 µg of DNA using TransIT transfection reagent (Mirus) 36–48 hr before the measurements. In case of co-cultures a ratio of 1:1 between hTRPM3-YFP WT and mutants-YFP DNA was used.
All mutants were obtained by the standard PCR overlap extension method using hTRPM3 directly linked to YFP from pCAGGS/IRES-GFP vector ([Vriens et al., 2007]). Accuracy of all mutant sequences was verified by sequencing of the entire DNA constructs.
(§2) Standard whole-cell patch-clamp recordings were performed with an EPC-10 amplifier and the PatchMasterPro Software (HEKA Elektronik, Lambrecht, Germany). Current measurements were performed at a sampling rate of 20 kHz and currents were digitally filtered at 2.9 kHz. In all measurements, 70% of the series resistance was compensated. The standard internal solution contained (in mM): 100 CsAsp, 45 CsCl, 10 EGTA, 10 HEPES, 1 MgCl2 (pH 7.2 with CsOH) or 140 potassium gluconate, 5 EGTA, 1 MgCl2, 10 HEPES and 2 NaATP (pH 7.3 with CsOH) for the measurements of Gβγ mediated inhibition and the standard extracellular solution contained (in mM): 150 NaCl, 1 MgCl2, 10 HEPES (pH 7.4 with NaOH). The standard patch pipette resistance was between 2 MΩ and 4 MΩ when filled with pipette solution. In experiments allowing Ca^2+-dependent desensitization of TRPM3, Mg^2+ was replaced by Ca^2+ in the extracellular solution, and Cs^+ was replaced by Na^+ in the pipette solution. […] The chemical ligands were dissolved in bath solution from a stock diluted in DMSO.

WT human TRPM3 = target: T2, WT human TRPM3 (Homo sapiens, UniProt Q9HCF6); experiment: Whole-cell patch clamp, HEK293T cells expressing WT hTRPM3; type: cell-based; conditions: cells not co-transfected with the µ-opioid receptor; DAMGO 1 µM, PS 40 µM
T2 construct: expressed in transfected cells; host or cells: HEK293T
T2 sequence (Q9HCF6 1-1325 isoform Q9HCF6-10): T1 sequence (Q9HCF6 1-1325 isoform Q9HCF6-10 V990M) with M990V
Description: as §1, §2

[1] = tested on: WT hTRPM3 co-transfected with µ-opioid receptors; experiment: Whole-cell patch clamp, Gβγ-mediated inhibition of PS-activated currents, cells co-transfected with µ-opioid receptor and WT TRPM3; type: cell-based, human
Description: (§3) TRPM3 activity is inhibited upon activation of G protein-coupled receptors, via a mechanism that involves direct binding of the Gβγ of trimeric G-proteins to the channel ([Badheka et al., 2017]; [Dembla et al., 2017]; [Quallo et al., 2017]).
as §1
(§4) Standard whole-cell patch-clamp recordings were performed with an EPC-10 amplifier and the PatchMasterPro Software (HEKA Elektronik, Lambrecht, Germany). Current measurements were performed at a sampling rate of 20 kHz and currents were digitally filtered at 2.9 kHz. In all measurements, 70% of the series resistance was compensated. The standard internal solution contained (in mM): 100 CsAsp, 45 CsCl, 10 EGTA, 10 HEPES, 1 MgCl2 (pH 7.2 with CsOH) or 140 potassium gluconate, 5 EGTA, 1 MgCl2, 10 HEPES and 2 NaATP (pH 7.3 with CsOH) for the measurements of Gβγ mediated inhibition and the standard extracellular solution contained (in mM): 150 NaCl, 1 MgCl2, 10 HEPES (pH 7.4 with NaOH). […]

[2] = tested on: V990M hTRPM3 co-transfected with µ-opioid receptors; experiment: Whole-cell patch clamp, Gβγ-mediated inhibition of PS-activated currents, cells co-transfected with µ-opioid receptor and V990M TRPM3; type: cell-based, human
Description: as §3, §1, §4

[3] = tested on: P1090Q hTRPM3 co-transfected with µ-opioid receptors; experiment: Whole-cell patch clamp, Gβγ-mediated inhibition of PS-activated currents, cells co-transfected with µ-opioid receptor and P1090Q TRPM3; type: cell-based, human; conditions: 1 µM DAMGO, PS 40 µM
Description: as §3, §1, §4

[4] = n = 5, read-out: IC50, DAMGO concentration for half-maximal inhibition of PS-activated currents

Compound	Block of the inward component of the PS-activated current (TRPM3 V990M mutant)	Effect on TRPM3 currents (WT human TRPM3)	Inhibition of PS-activated inward and outward currents ([1]; 1 µM DAMGO, PS 40 µM)	IC50 [1, 4] [nM]	Inhibition of PS-activated inward and outward currents ([2]; 1 µM DAMGO, PS 40 µM)	IC50 [2, 4] [nM]	Inhibition of PS-activated inward and outward currents [3]
[La+3] [La^3+, Lanthanum]	resistant to block	–	–	–	–	–	–
[D-Ala^2, N-Me-Phe^4, Gly^5-ol]-enkephalin acetate salt [DAMGO]	–	without effect	complete and rapidly reversible inhibition	4 ± 0.6	only partly inhibited	40 ± 10	complete and rapidly reversible inhibition
